Test results published in patent US5874443A, “Isoquinoline derivatives and isoquinoline combinatorial libraries” (Trega Biosciences, Inc., priority 1996, dated 1999).
“Also recorded” adds a separate entry of the source.

Molecular target: T1, σ receptor (Rattus norvegicus, UniProt Q9R0C9)
T1 construct: The brains are thawed, the cerebella removed and the remaining tissue weighed; tissue Rockland (Gilbertsville, Pa.); host or cells: rat brain without cerebellum, crude particulate membranes
Assay: σ receptor radio-receptor assay, inhibition of radiolabeled pentazocine binding
Details: for IC50: Table IV, individual compounds, R1 varied

T1 sequence (Q9R0C9 whole entry): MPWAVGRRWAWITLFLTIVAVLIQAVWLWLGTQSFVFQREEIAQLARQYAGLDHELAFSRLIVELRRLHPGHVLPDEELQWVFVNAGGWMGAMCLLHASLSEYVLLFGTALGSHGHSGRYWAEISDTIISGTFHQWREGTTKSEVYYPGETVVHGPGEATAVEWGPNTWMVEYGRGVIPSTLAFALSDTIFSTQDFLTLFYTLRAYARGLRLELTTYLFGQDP

Row | SMILES | activity in the σ receptor screen (positional scan) (in words, Example 51) | IC50 | activity in the σ receptor assay (iterative approach) (in words, Example 44)
1 | COc1ccc(Cc2ccc(C3C(C(=O)NCC4CCCCC4)c4ccccc4C(=O)N3CCCCCCC(N)=O)o2)cc1 (centres unmarked) | most active; also recorded: virtually equal activity |  | 
2 | COc1ccc(Cc2ccc(C3C(C(=O)NCC45CC6CC(CC(C6)C4)C5)c4ccccc4C(=O)N3CCCCCCC(N)=O)o2)cc1 (centres unmarked) [Compound 1] |  | 56 nM | most active
3 | COc1ccc(Cc2ccc(C3C(C(=O)NCC45CC6CC(CC(C6)C4)C5)c4ccccc4C(=O)N3C[C@H](N)C(N)=O)o2)cc1 (some centres unmarked) [Compound 3] |  | 71 nM | 
4 | COc1ccc(Cc2ccc(C3C(C(=O)NCC45CC6CC(CC(C6)C4)C5)c4ccccc4C(=O)N3C[C@H]3CC[C@H](C(N)=O)CC3)o2)cc1 (some centres unmarked) [Pool 2] |  | 68 nM | 
5 | COc1ccc(Cc2ccc(C3C(C(=O)NCC45CC6CC(CC(C6)C4)C5)c4ccccc4C(=O)N3CCOCCOCC(N)=O)o2)cc1 (centres unmarked) [Pool 5] |  | 117 nM | 
6 | COc1ccc(Cc2ccc(C3C(C(=O)NCC45CC6CC(CC(C6)C4)C5)c4ccccc4C(=O)N3CC(N)=O)o2)cc1 (centres unmarked) [Pool 6] |  | 124 nM | 
7 | COc1ccc(Cc2ccc(C3C(C(=O)NCC45CC6CC(CC(C6)C4)C5)c4ccccc4C(=O)N3Cc3ccc(C(N)=O)cc3)o2)cc1 (centres unmarked) [Pool 7] |  | 130 nM | 
8 | COc1ccc(Cc2ccc(C3C(C(=O)NCC45CC6CC(CC(C6)C4)C5)c4ccccc4C(=O)N3CCCC[C@H](N)C(N)=O)o2)cc1 (some centres unmarked) [Pool 8] |  | 150 nM | 
9 | COc1ccc(Cc2ccc(C3C(C(=O)NCC45CC6CC(CC(C6)C4)C5)c4ccccc4C(=O)N3CCCCC(N)=O)o2)cc1 (centres unmarked) [Pool 9] |  | 231 nM | 
10 | COc1ccc(Cc2ccc(C3C(C(=O)NCC45CC6CC(CC(C6)C4)C5)c4ccccc4C(=O)N3CCC(N)=O)o2)cc1 (centres unmarked) [Pool 10] |  | 355 nM | 
